Assay [1] deals with HLA-A2.1 restricted H-Y specific T cell clones. The assay can be described thus: H-Y reconstitution assay with HLA-A2.1 restricted H-Y specific T cell clones R416 and 1R35. It counts as cell-based, human. An excerpt: HLA-A2 molecules were immunoaffinity purified from 10^10 DM cells. Peptides were eluted according to the methodology as described in legend to FIG. 1.
In the same manner as described above for the HLA-B7 restricted T-cell clone, the peptide recognized by two HLA-A2.1 T-cell clones was identified. In short the HLA-A2.1 restricted H-Y specific T cell clone R416 recognizes HPLC fraction 34, the HLA-A2.1 restricted H-Y specific T clone 1R35 recognizes HPLC fractions 36 and 39 (FIG. 6).

In assay [2] the test system is T2-B7 cells. The assay can be described thus: H-Y epitope reconstitution, 51Cr release assay with HLA-B7-restricted H-Y specific CTL clone 5W4. It is filed as cell-based, human. Conditions: T2-B7 cells sensitized with synthetic peptide, effector to target ratio 10 to 1, read-out: peptide concentration at which half-maximal lysis was achieved. An excerpt: Reconstitution of the H-Y epitope with HPLC fractionated peptides extracted from HLA-B7 molecules. (A) HLA-B7 molecules were immunoaffinity purified from […] H-Y positive JY cells. Peptides were eluted from B7 molecules with 10% acetic acid, pH 2.2, filtered through a 10 kD cut-off filter and fractionated on a C18 reverse phase column. Buffer A was 0.1% heptafluorobutyric acid (HFBA); buffer B was 0.1% HFBA in acetonitrile. The gradient consisted of 100% buffer A (0–20 mm), 0 to 12% buffer B (20 to 25 mm), and 12 to 50% buffer B (25 to 80 mm) at a flow rate of 200 μl/min. 60 fractions of 200 μl each were collected from 20 to 80 mm. […]
H-Y epitope reconstitution with synthetic peptides. […] Purity was established on an analytical RP column and the quantity of each peptide was confirmed by comparing the area of the peak with that of a standard peptide. […]
To isolate endogenously processed H-Y peptides, HLA-B7 molecules were purified by affinity chromatography from the H-Y positive, B lymphoblastoid cell line, JY (29). […] Although a single active peak of reconstituting activity was also observed from this separation (FIG. 1B, fraction 14, 15 and 16), it still contained more than 100 distinct peptide species, as assessed by electrospray ionization tandem mass spectrometry. […]

Assay [3] addresses purified HLA-B7 (Homo sapiens, UniProt P01889). The assay can be described thus: Inhibition of binding of iodinated standard peptide to purified HLA-B7. Conditions: iodinated endogenous B7 peptide […]. As for the experimental part: Binding of synthetic peptides to purified HLA-B7. HPLC-purified test peptides were assayed for the ability to inhibit the binding of the iodinated endogenous B7 peptide […] (SEQ ID NO:4) to purified HLA-B7 as previously described (40). (♦), SMCY peptide […] (SEQ ID NO:1); (▪) SMCX peptide […] (SEQ ID NO:3); (Δ), […] (SEQ ID NO:5), an endogenous peptide bound to HLA-B7; (x) […] (SEQ ID NO.6), an endogenous peptide bound to HLA-A2.1 as the negative control.
The corresponding peptide derived from the sequence of the X chromosomal homolog, SMCX, has substitutions of A for S at position 3 and Q for R at position 8. […] Thus, the significant difference in the ability of the SMCY and SMCX peptides to sensitize targets for T cell recognition is almost entirely due to the fine specificity of the T cell receptor, rather than to differences in MHC binding affinities. The SMCX peptide is also present in naturally processed peptide extracts of HLA-B7, although its abundance is only 25% of that of the SMCY peptide (33). Based on all of this information, it is concluded that the peptide epitopes representing the HLA-B7 restricted H-Y antigen is derived from the protein encoded by SMCY, which is also true for the HLA-A2.1 recognized peptide, also encoded by SMCY.

Where a SMILES comes first, the peptide text is derived from it.

purified HLA-B7, sequence (P01889 25-362): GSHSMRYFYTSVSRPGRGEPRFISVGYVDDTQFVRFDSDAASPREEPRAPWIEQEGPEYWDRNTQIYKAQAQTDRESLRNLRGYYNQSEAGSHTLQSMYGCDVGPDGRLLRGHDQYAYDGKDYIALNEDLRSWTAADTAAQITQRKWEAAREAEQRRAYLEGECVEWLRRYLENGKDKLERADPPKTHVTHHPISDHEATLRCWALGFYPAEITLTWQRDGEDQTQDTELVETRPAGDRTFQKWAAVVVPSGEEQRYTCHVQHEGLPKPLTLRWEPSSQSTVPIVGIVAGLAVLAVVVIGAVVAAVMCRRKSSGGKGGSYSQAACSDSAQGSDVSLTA
purified HLA-B7, sequence (P61769 21-119 partner): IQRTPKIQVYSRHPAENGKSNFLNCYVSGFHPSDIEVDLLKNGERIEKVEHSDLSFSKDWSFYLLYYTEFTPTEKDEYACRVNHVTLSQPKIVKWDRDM

“FIDSYICQV (listed as Homo sapiens) [SMCY-encoded peptide recognized by HLA-A2.1 restricted H-Y specific T cell clones]”: the “recognition by HLA-A2.1 restricted H-Y specific T cell clones” value in assay [1] is “recognize”. The term IC50 denotes the concentration needed to halve the response being measured. A lower IC50 goes with inhibition by little substance. In the case of `CC(C)C[C@H](NC(=O)[C@H](CCC(=O)O)NC(=O)[C@H](C)NC(=O)[C@H](CCCNC(=N)N)NC(=O)[C@H](C)NC(=O)[C@H](CCCCN)NC(=O)[C@H](CC(=O)O)NC(=O)[C@@H](NC(=O)[C@H](CO)NC(=O)[C@@H]1CCCN1C(=O)[C@@H](N)CO)C(C)C)C(=O)O` [SMCY peptide] (H-SPSVDKARAEL-OH; N-terminus and C-terminus assumed), the EC50 in assay [2] worked out at 0.01 nM. This compound had a half-inhibitory concentration (IC50) in assay [3] of 34 nM. Turning to `CC(C)C[C@H](NC(=O)[C@H](CCC(=O)O)NC(=O)[C@H](C)NC(=O)[C@H](CCC(N)=O)NC(=O)[C@H](C)NC(=O)[C@H](CCCCN)NC(=O)[C@H](CC(=O)O)NC(=O)[C@@H](NC(=O)[C@H](C)NC(=O)[C@@H]1CCCN1C(=O)[C@@H](N)CO)C(C)C)C(=O)O` [SMCX peptide, reference compound] (H-SPAVDKAQAEL-OH), the IC50 in assay [3] was found to be 140 nM.

(Values after patent publication US7008922B2, “H-Y antigen” (Rijksuniversiteit te Leiden, priority 1995, dated 2006).)
